One assay concerns the target Exo III (Escherichia coli, UniProt P09030). To be noted: 0.5 U EXO III. Here is the method: 0.5 U EXO III was added into each reaction and incubated at 37° C. for 10 minutes to release fluorescence signal. Reaction mixtures were incubated at 50° C. for additional 30 min to ensure the complete release of 6-FAM conjugated unrepaired DNA substrates. EDTA was added into each reaction at a final concentration of 50 mM to terminate the reactions. Fluorescence readings were measured at excitation wavelength of 485±20 nm and emission wavelength of 528±20 nm on Synergy HTX Plate Reader. Data were exported for statistical analysis. The fluorescence reading of each well were adjusted by subtracting background reading signals from a control containing substrate […]. Normalized fluorescence data were averaged and plotted with corresponding statistical errors.

Assay [1] deals with prostate cancer (LNCaP) cell extracts. Description: BER capacity of prostate cancer cell extracts (fluorescence assay). It is filed as biochemical, human. To be noted: 25 μg cell extracts, inhibitor 200 μM, 37° C. 30 minutes; FIG. 7. On the procedure: Cell pellets were re-suspended in lysis buffer that contained 10 mM Tris-HCl, pH 7.8, 200 mM KCl, 1 mM EDTA, 20% glycerol, 0.1% Nonidet P-40, 1 mM DTT with proteinase inhibitors (Roche Diagnostics Corporation, Indianapolis, Ind.). Cell suspension was subsequently subjected to rotation at 4° C. for 2 hours. After rotation, cell lysates were centrifuged at 14,000 rpm at 4° C. for 30 minutes to remove cell debris. The supernatant was recovered and further dialyzed into BER reaction buffer containing 50 mM Tris-HCl, pH 7.5, 50 mM KCl, 0.1 mM EDTA, 0.1 mg/ml bovine serum albumin, and 0.01% Nonidet P-40. Protein concentration of cell lysates was determined by Bradford assay. Cell lysates were aliquoted and stored at −80° C. for subsequent assay.
Substrates (25 nM) were pre-incubated with 25 nM purified APE1 at 37° C. for 15 minutes, and completely converted into ssDNA break intermediates for subsequent BER reactions. In vitro BER of a THF base lesion was performed by incubating APE1 precut substrate with 25 μg cell extracts in 10 μl-reaction mixtures that contained BER reaction buffer with 5 mM Mg^2+, 50 μM dNTP and 2 mM ATP in the absence or presence of inhibitors. Reaction mixtures were assembled on ice and incubated at 37° C. for 30 minutes.
10 μl-reaction mixtures were then transferred to […] black plates (Thermo Fisher Scientific, Pittsburgh, Pa.) and subjected to fluorescence reading. Each substrates/lysate/inhibitor combination was run in triplicate.
[…] plates were read at an excitation wavelength of 485±20 nm and an emission wavelength of 528±20 nm on a Synergy HTX Plate Reader (Bio-Tek, Winooski, Vt.). Data were exported to Excel for statistical analysis.
The fluorescence reading of each well needs to be abstracted by the reading from the well with 10 μl-BER reaction buffer alone before further data analysis. Normalized fluorescence data were averaged and plotted as “Average±Standard Deviation.” […]

This is an account of results in US9809843B1, “High throughput measurement of DNA base lesion repair capacity” (THE FLORIDA INTERNATIONAL UNIVERSITY BOARD OF TRUSTEES, priority 2016, dated 2017).

Sequence of Exo III (P09030 whole entry): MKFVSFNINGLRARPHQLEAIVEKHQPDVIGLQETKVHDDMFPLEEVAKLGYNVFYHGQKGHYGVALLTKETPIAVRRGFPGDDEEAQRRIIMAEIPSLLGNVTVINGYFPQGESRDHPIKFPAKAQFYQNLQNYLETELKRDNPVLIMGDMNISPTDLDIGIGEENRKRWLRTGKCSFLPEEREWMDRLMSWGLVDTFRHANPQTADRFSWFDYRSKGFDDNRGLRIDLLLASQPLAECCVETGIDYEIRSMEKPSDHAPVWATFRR

As to `NC1=NC(=O)N(C2CC(O)C(COP(=O)(O)O)O2)C(I)C1` (stereo not drawn) [NSC-124854], on Exo III, the “inhibitory effects on Exo III activity” value is on record as “do not exhibit any inhibitory effects”. Moreover, the “effects on reducing BER capacity of prostate cancer (LNCaP) cell extracts” value (from here on “effects on reducing BER capacity”) in assay [1] is “not significant”.

Turning to `Cc1cc(S(=O)(=O)Nc2n[nH]c(Nc3ccc(Cl)cc3)n2)c(S)cc1Cl` [NSC-666715], at Exo III, the “inhibitory effects on Exo III activity” value was “do not exhibit any inhibitory effects”. In addition, in assay [1], the “effects on reducing BER capacity” value is listed as “not significant”.

As for `Cc1cc(S(=O)(=O)Nc2n[nH]c(Nc3ccc4ccccc4c3)n2)c(S)cc1Cl` [NSC-666719], the “inhibitory effects on Exo III activity” value on Exo III is “do not exhibit any inhibitory effects”. The “effects on reducing BER capacity” value in assay [1] is “not significant”.
